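How tested: cells in 96-well plates exposed to compound for 48 hours at five concentrations. TGI: total growth inhibition.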
Experiments:
Assay in all cases: growth of human tumour cells (NCI), 48 h
SW-620 colon = system: SW-620 colon
KM12 colon = system: KM12 colon
NCI-H522 lung = system: NCI-H522 lung
SK-MEL-28 melanoma = system: SK-MEL-28 melanoma
SK-MEL-5 melanoma = system: SK-MEL-5 melanoma
MOLT-4 leukemia = system: MOLT-4 leukemia
NCI-H226 lung = system: NCI-H226 lung
NCI-H460 lung = system: NCI-H460 lung
MALME-3M melanoma = system: MALME-3M melanoma
CAKI-1 renal = system: CAKI-1 renal

Structure (SMILES)	TGI (SW-620 colon) [µM]	TGI (KM12 colon) [µM]	TGI (NCI-H522 lung) [µM]	TGI (SK-MEL-28 melanoma) [µM]	TGI (SK-MEL-5 melanoma) [µM]	TGI (MOLT-4 leukemia) [µM]	TGI (NCI-H226 lung) [µM]	TGI (NCI-H460 lung) [µM]	TGI (MALME-3M melanoma) [µM]	TGI (CAKI-1 renal) [µM]
C=CCNC(=S)Nc1sc2c(c1C(=O)OCC)CC(C)CC2 (configuration not stated)	> 100	> 100	46.4	> 100	30.7	80	50.7	47.7	45.8	> 100
COc1cc(/C=C2/SC(c3ccccc3)N(c3ccc(NC(C)=O)cc3)C2=O)cc(OC)c1OC (configuration not stated)	> 100	> 100	> 100	> 100	> 100	> 100	> 100	> 100	> 100	> 100
C=C1C(=O)OC2/C=C(\C)C(OC(C)=O)C3OC3C(C)(O)CC(OC(=O)/C(C)=C/C)C12 (configuration not stated)	1.89	28.7	3.37	16.2	27.4	85.6	23.4	29.1	21	5.94
COc1cc(/C=C/C(=O)OCC23CC[C@@]4(C(=O)O)CCC(C)[C@H](C)C4C2=CCC2[C@@]4(C)CC[C@H](O)C(C)(C)C4CC[C@]23C)ccc1O (some centres not stated)	> 100	> 100	31.2	85.9	32.9	76.2	71.8	27.6	27.5	> 100
O=S(=O)(c1ccc(Br)cc1)n1c2ccc(Br)cc2c2nc3ccccc3nc21	> 100	> 100	> 100	> 100	> 100	> 100	> 100	> 100	> 100	> 100
COc1ccc(-c2nc(N)c(C#N)c3c2CCS(=O)(=O)c2ccc(C)cc2-3)cc1OC	> 100	52.3	25.1	> 100	> 100		> 100	> 100	> 100	> 100
O=C(COc1ccc(OCC(=O)N2C(=O)CC(=O)N(c3ccccc3)C2=S)cc1)N1C(=O)CC(=O)N(c2ccccc2)C1=S	> 100	> 100	> 100	> 100		> 100	> 100	> 100	> 100	> 100
COc1cccc2c1OC1c3ccccc3OCC1C2 (configuration not stated)	> 100	> 100			> 100	> 100	> 100		> 100	> 100
Cc1[nH]c2ncn(/N=C/c3ccccc3O)c(=N)c2c1Cc1ccccc1	> 100	> 100		> 100		> 100	> 100	> 100		> 100
CC12CC3C(CC1SCC(=O)O2)C3(C)C (configuration not stated)		> 100		> 100	> 100	> 100		> 100	> 100	
CCCCNC1CCC2(SCCS2)c2[nH]c3ccccc3c21 (configuration not stated)	> 82.6	36.9	23	> 100	18	33.5	> 73.7	> 100	33.8	
